How the values were obtained:
Caco-2 cell monolayers = assay: Caco-2 permeability; assay type: in vitro ADME; conditions: A–B at 50 μM
Description: (§1) The Caco-2 monolayers were incubated at 37°C, with ambient humidity, and CO2 for the duration of the transport assay. […] The apical volume was 0.2 mL and the basolateral volume was 0.6 mL. The incubation period was 120 minutes. At the end of the incubation period, 0.1 mL of sample was removed from the receiver side and an equal volume of acetonitrile was added for protein precipitation. After centrifugation, the supernatants were collected for analysis. Nadolol and metoprolol were included as low and high permeability comparators, respectively. Trans-epithelial electrical resistance was measured to ensure the integrity of the cell monolayers. Caco-2 cell monolayers with trans-epithelial electrical resistance values ≥300 Ω•cm2 were used for transport experiments.

Caco-2 permeability = assay type: in vitro ADME; conditions: human, Caco-2; A–B at 50 μM
Description: as §1

CLK3 = CLK3 (Homo sapiens, UniProt P49761); assay: Enzyme selectivity panel; assay type: biochemical; conditions: 1 mM ATP
Description: (§3) The kinase assays were carried out at room temperature in HEPES 50 mM, pH 7.0, NaN3 0.02%, BSA 0.01%, Orthovanadate 0.1 mM, DTT 1 mM, MgCl2 10 mM in a final volume of 10 µL. Test compounds were transferred to the plate wells by ECHO liquid handler (Labcyte, San Jose, CA) with 0.5% dimethyl sulfoxide (DMSO) in the final assay. Peptide/kinase mixtures were diluted in the appropriate enzymatic buffer and 5µL of the mixture was added to a 384-well small volume black plate. Reactions were initiated by the addition of 5 µL ATP in reaction buffer, the final reaction mixture consisted of 500 nM peptide substrate, 1 mM ATP, and appropriate amount of specific kinase. […] The plates were then sealed and centrifuged at 1800 rpm for 2 minutes. […] Half maximal inhibitory concentration (IC50) determination was performed by fitting the curve of percent control activity versus the log of the compound concentration using the GraphPad Prism 6.0 software.

FLT3 = FLT3 (Homo sapiens, UniProt P36888); assay: Enzyme selectivity panel; assay type: biochemical; conditions: 1 mM ATP
Description: as §3

DYRK2 = DYRK2 (Homo sapiens, UniProt Q92630); assay: Enzyme selectivity panel; assay type: biochemical; conditions: 1 mM ATP
Chain of DYRK2 (Q92630 whole entry, species assumed): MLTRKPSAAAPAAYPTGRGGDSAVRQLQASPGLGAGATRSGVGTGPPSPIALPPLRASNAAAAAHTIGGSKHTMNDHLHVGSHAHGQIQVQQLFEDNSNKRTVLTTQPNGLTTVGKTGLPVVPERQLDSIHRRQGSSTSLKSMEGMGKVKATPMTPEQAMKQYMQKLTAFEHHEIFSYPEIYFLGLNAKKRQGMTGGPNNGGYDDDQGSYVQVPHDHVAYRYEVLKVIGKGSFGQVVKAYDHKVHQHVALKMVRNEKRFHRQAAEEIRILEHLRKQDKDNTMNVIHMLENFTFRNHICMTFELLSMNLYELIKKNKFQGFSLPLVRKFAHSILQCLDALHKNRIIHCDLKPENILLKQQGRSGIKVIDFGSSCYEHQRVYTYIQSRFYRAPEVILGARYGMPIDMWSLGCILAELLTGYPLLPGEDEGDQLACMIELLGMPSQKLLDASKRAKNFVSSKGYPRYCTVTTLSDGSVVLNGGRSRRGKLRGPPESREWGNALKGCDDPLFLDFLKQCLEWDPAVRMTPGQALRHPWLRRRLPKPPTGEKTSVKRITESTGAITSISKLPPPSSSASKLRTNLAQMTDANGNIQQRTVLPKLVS
Description: as §3

KMS12BM = assay: Cell viability assay (CellTiter-Glo); assay type: cell-based; conditions: Homo sapiens, KMS-12-BM; Myeloma; lacking FGFR alterations
CAMK2D = CAMK2D (Homo sapiens, UniProt Q13557); assay: Enzyme selectivity panel; assay type: biochemical; conditions: 1 mM ATP
Chain of CAMK2D (Q13557 whole entry, species assumed): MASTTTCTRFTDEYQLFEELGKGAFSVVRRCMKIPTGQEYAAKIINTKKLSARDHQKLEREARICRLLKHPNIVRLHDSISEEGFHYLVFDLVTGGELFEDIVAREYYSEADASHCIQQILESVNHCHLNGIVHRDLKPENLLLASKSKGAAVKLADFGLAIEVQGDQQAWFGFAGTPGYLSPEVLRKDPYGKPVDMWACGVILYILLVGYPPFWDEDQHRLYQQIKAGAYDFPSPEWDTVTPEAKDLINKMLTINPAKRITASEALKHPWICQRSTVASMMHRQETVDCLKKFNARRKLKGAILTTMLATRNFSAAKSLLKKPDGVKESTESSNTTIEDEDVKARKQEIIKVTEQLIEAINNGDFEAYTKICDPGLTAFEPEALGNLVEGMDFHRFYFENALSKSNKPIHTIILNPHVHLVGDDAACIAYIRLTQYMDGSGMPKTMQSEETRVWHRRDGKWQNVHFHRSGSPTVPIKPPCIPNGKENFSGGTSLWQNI
Description: as §3

[1] = tested on: FGFR3 phosphorylation in RT-4 cells; assay: Proximity ligation assay; assay type: cell-based; conditions: 100 nM, 1 hour
Description: S4 Figure. FGFR3 Phosphorylation Detected by Proximity Ligation Assay. […] Primary antibodies were rabbit anti-FGFR3 (Abcam, Cambridge, UK, #137084) at a 1:250 dilution and mouse 4G10 platinum anti-phosphotyrosine monoclonal cocktail IgG2b (Millipore, Burlington, MA, #05-1050) at a 1:250 dilution. Secondary probes were Duolink In Situ PLA® Probe Anti-Rabbit PLUS, affinity purified donkey anti-rabbit IgG (H+L) and Duolink In Situ PLA® Probe Anti-Mouse MINUS, Affinity purified donkey anti-mouse IgG (H+L). Detection was via Duolink In Situ Detection Reagents Red.

PDGFR BETA = target: T1, PDGFR BETA (Homo sapiens, UniProt P09619); assay: Enzyme selectivity panel; assay type: biochemical; conditions: 1 mM ATP
T1 construct: purchased In-house HTRF panel (56 kinases) and PerkinElmer (161-kinase panel)
Description: as §3

KG1 = assay: Cell viability assay (CellTiter-Glo); assay type: cell-based; conditions: Homo sapiens; KG1, parental line to KG1a
NLK = NLK (Homo sapiens, UniProt Q9UBE8); assay: Enzyme selectivity panel; assay type: biochemical; conditions: 1 mM ATP
Chain of NLK (Q9UBE8 whole entry): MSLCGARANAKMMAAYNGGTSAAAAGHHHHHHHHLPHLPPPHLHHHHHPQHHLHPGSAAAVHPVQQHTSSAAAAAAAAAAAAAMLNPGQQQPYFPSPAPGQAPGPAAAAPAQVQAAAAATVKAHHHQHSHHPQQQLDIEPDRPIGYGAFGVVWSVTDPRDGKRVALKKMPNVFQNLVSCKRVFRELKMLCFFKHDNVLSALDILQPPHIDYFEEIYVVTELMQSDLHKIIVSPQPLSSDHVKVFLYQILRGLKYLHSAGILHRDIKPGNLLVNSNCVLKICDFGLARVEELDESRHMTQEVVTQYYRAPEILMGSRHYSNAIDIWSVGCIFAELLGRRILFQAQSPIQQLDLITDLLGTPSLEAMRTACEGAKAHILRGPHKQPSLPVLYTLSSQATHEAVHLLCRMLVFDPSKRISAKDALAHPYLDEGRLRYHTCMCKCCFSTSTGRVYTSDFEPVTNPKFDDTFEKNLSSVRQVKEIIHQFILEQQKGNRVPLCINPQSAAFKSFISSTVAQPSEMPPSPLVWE
Description: as §3

[2] = Intrinsic clearance in liver microsomes; assay type: in vitro ADME
Description: Aliquots were taken at 0, 10, 20, and 30 minutes and denatured with methanol. After centrifugation to remove the denatured proteins, the resulting supernatants were analyzed by LC/MS

GCK = target: T2, GCK (Homo sapiens, UniProt Q12851); assay: Broader kinase panel (PerkinElmer); assay type: biochemical; conditions: 100 nM; read-out: Average Percent Inhibition
T2 construct: purchased In-house HTRF panel (56 kinases) and PerkinElmer (161-kinase panel)
Description: (§2) […]. […] […].

PHKG2 = target: T3, PHKG2 (Homo sapiens, UniProt P15735); assay: Broader kinase panel (PerkinElmer); assay type: biochemical; conditions: 100 nM; read-out: Average Percent Inhibition
T3 construct: purchased In-house HTRF panel (56 kinases) and PerkinElmer (161-kinase panel)
T3 sequence (P15735 whole entry, species assumed): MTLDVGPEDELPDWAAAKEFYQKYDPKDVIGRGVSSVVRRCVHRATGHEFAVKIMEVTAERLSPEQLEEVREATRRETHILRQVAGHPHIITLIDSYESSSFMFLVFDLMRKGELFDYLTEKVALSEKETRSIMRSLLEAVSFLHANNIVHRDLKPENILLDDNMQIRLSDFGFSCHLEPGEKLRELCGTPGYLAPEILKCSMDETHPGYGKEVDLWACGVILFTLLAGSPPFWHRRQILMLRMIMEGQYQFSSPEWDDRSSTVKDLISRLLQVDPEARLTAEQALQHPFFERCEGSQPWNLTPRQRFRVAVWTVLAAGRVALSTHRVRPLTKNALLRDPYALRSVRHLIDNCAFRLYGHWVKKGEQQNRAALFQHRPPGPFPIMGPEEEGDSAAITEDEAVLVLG
Description: as §2

RSK1 = target: T4, RSK1 (Homo sapiens, UniProt Q15418); assay: Broader kinase panel (PerkinElmer); assay type: biochemical; conditions: 100 nM; read-out: Average Percent Inhibition
T4 construct: purchased In-house HTRF panel (56 kinases) and PerkinElmer (161-kinase panel)
Description: as §2

BTK = BTK (Homo sapiens, UniProt Q06187); assay: Broader kinase panel (PerkinElmer); assay type: biochemical; conditions: 100 nM; read-out: Average Percent Inhibition
Description: as §2

GSK3-alpha = target: T5, GSK3-alpha (Homo sapiens, UniProt P49840); assay: Broader kinase panel (PerkinElmer); assay type: biochemical; conditions: 100 nM; read-out: Average Percent Inhibition
T5 construct: purchased In-house HTRF panel (56 kinases) and PerkinElmer (161-kinase panel)
Description: as §2

EPHB3 = target: T6, EPHB3 (Homo sapiens, UniProt P54753); assay: Broader kinase panel (PerkinElmer); assay type: biochemical; conditions: 100 nM; read-out: Average Percent Inhibition
T6 construct: purchased In-house HTRF panel (56 kinases) and PerkinElmer (161-kinase panel)
Description: as §2

MNK1 (MKNK1) = target: T7, MNK1 (MKNK1) (Homo sapiens, UniProt Q9BUB5); assay: Broader kinase panel (PerkinElmer); assay type: biochemical; conditions: 100 nM; read-out: Average Percent Inhibition
T7 construct: purchased In-house HTRF panel (56 kinases) and PerkinElmer (161-kinase panel)
T7 sequence (Q9BUB5 whole entry): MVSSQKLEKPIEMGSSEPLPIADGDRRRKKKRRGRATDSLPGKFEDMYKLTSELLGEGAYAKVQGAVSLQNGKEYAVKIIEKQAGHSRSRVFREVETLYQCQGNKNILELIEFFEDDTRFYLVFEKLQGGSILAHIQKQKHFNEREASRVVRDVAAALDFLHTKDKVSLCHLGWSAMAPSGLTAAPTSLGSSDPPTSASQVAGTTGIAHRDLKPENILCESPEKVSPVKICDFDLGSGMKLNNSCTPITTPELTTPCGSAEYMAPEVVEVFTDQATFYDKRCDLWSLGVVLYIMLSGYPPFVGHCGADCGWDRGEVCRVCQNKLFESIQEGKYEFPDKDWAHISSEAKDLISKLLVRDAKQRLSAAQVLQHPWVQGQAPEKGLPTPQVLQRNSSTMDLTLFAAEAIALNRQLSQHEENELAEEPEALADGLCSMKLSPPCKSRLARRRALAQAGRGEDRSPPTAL
Description: as §2

p38-delta = target: T8, p38-delta (Homo sapiens, UniProt O15264); assay: Broader kinase panel (PerkinElmer); assay type: biochemical; conditions: 100 nM; read-out: Average Percent Inhibition
T8 construct: purchased In-house HTRF panel (56 kinases) and PerkinElmer (161-kinase panel)
T8 sequence (O15264 whole entry): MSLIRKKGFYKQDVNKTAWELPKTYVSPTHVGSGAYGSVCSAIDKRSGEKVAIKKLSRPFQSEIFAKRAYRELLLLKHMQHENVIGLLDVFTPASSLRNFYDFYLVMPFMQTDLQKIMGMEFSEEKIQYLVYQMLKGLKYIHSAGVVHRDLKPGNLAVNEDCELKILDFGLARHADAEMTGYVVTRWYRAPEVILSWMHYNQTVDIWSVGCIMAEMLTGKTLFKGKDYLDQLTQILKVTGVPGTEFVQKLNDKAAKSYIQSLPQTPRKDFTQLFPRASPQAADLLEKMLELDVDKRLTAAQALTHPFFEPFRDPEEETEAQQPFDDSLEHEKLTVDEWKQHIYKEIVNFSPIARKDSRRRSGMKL
Description: as §2

PKCz = target: T9, PKCz (Homo sapiens, UniProt Q05513); assay: Broader kinase panel (PerkinElmer); assay type: biochemical; conditions: 100 nM; read-out: Average Percent Inhibition
T9 construct: purchased In-house HTRF panel (56 kinases) and PerkinElmer (161-kinase panel)
Description: as §2

CK1-epsilon = target: T10, CK1-epsilon (Homo sapiens, UniProt P49674); assay: Broader kinase panel (PerkinElmer); assay type: biochemical; conditions: 100 nM; read-out: Average Percent Inhibition
T10 construct: purchased In-house HTRF panel (56 kinases) and PerkinElmer (161-kinase panel)
T10 sequence (P49674 whole entry): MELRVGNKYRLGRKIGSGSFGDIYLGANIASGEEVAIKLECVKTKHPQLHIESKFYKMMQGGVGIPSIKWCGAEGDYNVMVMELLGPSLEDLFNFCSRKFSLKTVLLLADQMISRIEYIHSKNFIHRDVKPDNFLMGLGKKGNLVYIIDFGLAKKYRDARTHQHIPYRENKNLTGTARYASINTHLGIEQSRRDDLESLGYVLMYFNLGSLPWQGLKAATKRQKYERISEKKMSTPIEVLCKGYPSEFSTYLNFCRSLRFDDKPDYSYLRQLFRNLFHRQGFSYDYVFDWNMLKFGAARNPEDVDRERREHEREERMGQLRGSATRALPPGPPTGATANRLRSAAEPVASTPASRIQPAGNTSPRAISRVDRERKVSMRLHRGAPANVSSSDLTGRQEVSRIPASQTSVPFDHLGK
Description: as §2

PKC-theta = target: T11, PKC-theta (Homo sapiens, UniProt Q04759); assay: Broader kinase panel (PerkinElmer); assay type: biochemical; conditions: 100 nM; read-out: Average Percent Inhibition
T11 construct: purchased In-house HTRF panel (56 kinases) and PerkinElmer (161-kinase panel)
Description: as §2

EGFR = EGFR (Homo sapiens, UniProt P00533); assay: Broader kinase panel (PerkinElmer); assay type: biochemical; conditions: 100 nM; read-out: Average Percent Inhibition
Description: as §2

MST2 = target: T12, MST2 (Homo sapiens, UniProt Q13188); assay: Broader kinase panel (PerkinElmer); assay type: biochemical; conditions: 100 nM; read-out: Average Percent Inhibition
T12 construct: purchased In-house HTRF panel (56 kinases) and PerkinElmer (161-kinase panel)
Description: as §2

ROS (ROS1) = target: T13, ROS (ROS1) (Homo sapiens, UniProt P08922); assay: Broader kinase panel (PerkinElmer); assay type: biochemical; conditions: 100 nM; read-out: Average Percent Inhibition
T13 construct: purchased In-house HTRF panel (56 kinases) and PerkinElmer (161-kinase panel)
Description: as §2

TSSK2 = target: T14, TSSK2 (Homo sapiens, UniProt Q96PF2); assay: Broader kinase panel (PerkinElmer); assay type: biochemical; conditions: 100 nM; read-out: Average Percent Inhibition
T14 construct: purchased In-house HTRF panel (56 kinases) and PerkinElmer (161-kinase panel)
Description: as §2

Flt3(D835Y) = target: T15, Flt3(D835Y) (Homo sapiens, UniProt P36888, D835Y); assay: Broader kinase panel (PerkinElmer); assay type: biochemical; conditions: 100 nM; read-out: Average Percent Inhibition
T15 construct: purchased In-house HTRF panel (56 kinases) and PerkinElmer (161-kinase panel)
Description: as §2

FLT4 = target: T16, FLT4 (Homo sapiens, UniProt P35916); assay: Broader kinase panel (PerkinElmer); assay type: biochemical; conditions: 100 nM; read-out: Average Percent Inhibition
T16 construct: purchased In-house HTRF panel (56 kinases) and PerkinElmer (161-kinase panel)
Description: as §2

AKT3 = target: T17, AKT3 (Homo sapiens, UniProt Q9Y243); assay: Broader kinase panel (PerkinElmer); assay type: biochemical; conditions: 100 nM; read-out: Average Percent Inhibition
T17 construct: purchased In-house HTRF panel (56 kinases) and PerkinElmer (161-kinase panel)
T17 sequence (Q9Y243 whole entry): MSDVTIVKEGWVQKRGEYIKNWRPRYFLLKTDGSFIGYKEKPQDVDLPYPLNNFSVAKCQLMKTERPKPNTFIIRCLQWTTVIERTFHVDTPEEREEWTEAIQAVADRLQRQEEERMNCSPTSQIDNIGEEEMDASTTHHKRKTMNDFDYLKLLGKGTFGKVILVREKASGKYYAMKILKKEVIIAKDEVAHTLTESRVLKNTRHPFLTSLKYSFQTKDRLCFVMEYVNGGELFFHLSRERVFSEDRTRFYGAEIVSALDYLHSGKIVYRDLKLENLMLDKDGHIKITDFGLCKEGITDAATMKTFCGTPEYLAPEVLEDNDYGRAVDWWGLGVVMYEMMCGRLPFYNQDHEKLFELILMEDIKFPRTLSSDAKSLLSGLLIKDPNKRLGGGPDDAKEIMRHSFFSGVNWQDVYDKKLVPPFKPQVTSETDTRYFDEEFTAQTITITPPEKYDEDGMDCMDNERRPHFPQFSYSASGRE
Description: as §2

MELK = target: T18, MELK (Homo sapiens, UniProt Q14680); assay: Broader kinase panel (PerkinElmer); assay type: biochemical; conditions: 100 nM; read-out: Average Percent Inhibition
T18 construct: purchased In-house HTRF panel (56 kinases) and PerkinElmer (161-kinase panel)
T18 sequence (Q14680 whole entry): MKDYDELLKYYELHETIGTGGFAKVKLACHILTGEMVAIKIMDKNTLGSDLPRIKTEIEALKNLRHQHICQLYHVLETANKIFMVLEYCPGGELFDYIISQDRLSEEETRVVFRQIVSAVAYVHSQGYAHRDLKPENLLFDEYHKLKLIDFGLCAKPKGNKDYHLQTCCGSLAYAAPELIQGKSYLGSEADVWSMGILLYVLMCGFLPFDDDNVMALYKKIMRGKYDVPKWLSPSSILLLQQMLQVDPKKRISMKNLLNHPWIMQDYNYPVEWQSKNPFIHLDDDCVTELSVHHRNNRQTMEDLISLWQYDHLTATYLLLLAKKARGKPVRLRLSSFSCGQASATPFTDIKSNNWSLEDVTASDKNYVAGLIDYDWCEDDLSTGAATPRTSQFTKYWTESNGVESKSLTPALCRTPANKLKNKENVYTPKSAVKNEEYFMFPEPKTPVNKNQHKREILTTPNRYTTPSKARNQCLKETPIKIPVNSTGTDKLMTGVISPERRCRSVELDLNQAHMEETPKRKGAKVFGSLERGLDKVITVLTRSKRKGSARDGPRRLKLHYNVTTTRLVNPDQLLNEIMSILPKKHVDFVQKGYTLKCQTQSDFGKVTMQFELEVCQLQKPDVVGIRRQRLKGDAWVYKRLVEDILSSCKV
Description: as §2

H1581 (lung cancer) = assay: Cell viability assay (CellTiter-Glo); assay type: cell-based; conditions: Homo sapiens, NCI-H1581; FGFR1 amplification; 72 hours; read-out: Mean GI50 ± S.D.
AKT1 = AKT1 (Homo sapiens, UniProt P31749); assay: Enzyme selectivity panel; assay type: biochemical; conditions: 1 mM ATP
Chain of AKT1 (P31749 whole entry, species assumed): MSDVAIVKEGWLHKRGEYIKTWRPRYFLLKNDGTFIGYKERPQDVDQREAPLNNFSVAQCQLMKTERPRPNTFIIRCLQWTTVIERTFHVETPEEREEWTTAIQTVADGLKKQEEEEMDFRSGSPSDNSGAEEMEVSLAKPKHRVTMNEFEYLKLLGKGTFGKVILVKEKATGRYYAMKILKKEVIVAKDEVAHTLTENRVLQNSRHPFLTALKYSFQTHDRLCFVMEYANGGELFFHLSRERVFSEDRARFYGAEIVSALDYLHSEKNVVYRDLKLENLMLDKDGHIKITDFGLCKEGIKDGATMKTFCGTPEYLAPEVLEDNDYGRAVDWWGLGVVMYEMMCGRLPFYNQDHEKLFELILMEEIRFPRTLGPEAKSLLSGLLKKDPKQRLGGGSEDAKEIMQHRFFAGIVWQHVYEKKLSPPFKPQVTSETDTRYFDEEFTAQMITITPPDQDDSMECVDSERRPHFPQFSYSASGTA
Description: as §3

KMS-11 (myeloma) = assay: Cell viability assay (CellTiter-Glo); assay type: cell-based; conditions: Homo sapiens, IgH-FGFR3 translocation, 72 hours, read-out: Mean GI50 ± S.D.

CCN1C(=O)N(c2c(F)c(OC)cc(OC)c2F)Cc2cnc3[nH]c(CN4CCOCC4)cc3c21 [INCB054828, pemigatinib]
Caco-2 Papp (Caco-2 cell monolayers): moderate to high permeability | Papp at 120 min, 50 μM (Caco-2 permeability): 110 nm/s | IC50 (CLK3): > 10 µM | IC50 (FLT3): > 10 µM | IC50 (DYRK2): > 10 µM | GI50 (KMS12BM): 2.89 µM | IC50 (CAMK2D): > 10 µM | FGFR3 phosphorylation [1]: a decrease was detected | IC50 (PDGFR BETA): 1.79 µM | GI50 (KG1): 0.001 µM | IC50 (NLK): > 10 µM | Intrinsic clearance ([2]; human liver microsomes): moderate metabolic stability | CLint scaled at 1 μM ([2]; human, pH 7.4): 0.8 L/h/kg | inhibition at 0.1 µM (GCK): 1% | inhibition at 0.1 µM (PHKG2): -1% | inhibition at 0.1 µM (RSK1): -2% | inhibition at 0.1 µM (BTK): -3% | inhibition at 0.1 µM (GSK3-alpha): 2% | inhibition at 0.1 µM (EPHB3): 0% | inhibition at 0.1 µM (MNK1 (MKNK1)): 6% | inhibition at 0.1 µM (p38-delta): 2% | inhibition at 0.1 µM (PKCz): 1% | inhibition at 0.1 µM (CK1-epsilon): -1% | inhibition at 0.1 µM (PKC-theta): 2% | inhibition at 0.1 µM (EGFR): 23% | inhibition at 0.1 µM (MST2): 3% | inhibition at 0.1 µM (ROS (ROS1)): 3% | inhibition at 0.1 µM (TSSK2): -3% | inhibition at 0.1 µM (Flt3(D835Y)): 1% | inhibition at 0.1 µM (FLT4): 38% | inhibition at 0.1 µM (AKT3): 3% | inhibition at 0.1 µM (MELK): 2% | GI50 (H1581 (lung cancer)): 0.014 ± 0.009 µM | IC50 (AKT1): > 10 µM | GI50 (KMS-11 (myeloma)): 0.362 ± 0.282 µM
